{
  "source": "patent US20140079639A1",
  "about": "“METHODS AND COMPOSITIONS FOR IDENTIFYING, PRODUCING AND USING PLANT-DERIVED PRODUCTS FOR MODULATING CELL FUNCTION AND AGING” (LIFESPAN EXTENSION, LLC, priority 2009, published 2014)",
  "origin": "cited, not measured here",
  "key": {"[1]": {"tested_on": "fibroblast cells", "conditions": "cells treated in culture"}, "[2]": {"conditions": "oxidation of lipids due to e.g. UV radiation or free radical damage"}, "[3]": {"conditions": "when absorbed into the body"}},
  "data": [
    {"molecule": "O=C(O)/C=C/c1ccc(O)c(O)c1", "note": "[Caffeic Acid, (E)-3-(3,4-dihydroxyphenyl)-2-propenoic acid]", "values": [
      {"measurement": "solubility", "result": "soluble in water and alcohol"}
    ]},
    {"molecule": "NCCC(=O)N[C@@H](Cc1cnc[nH]1)C(=O)O", "note": "[Carnosine]", "values": [
      {"measurement": "extension of lifespan of fibroblast cells past the Hayflick limit of non-treated cells", "setting": "[1]", "result": "up to 10 divisions"}
    ]},
    {"molecule": "COC1=C(OC)C(=O)C(CCCCCCCCCCO)=C(C)C1=O", "note": "[idebenone, 6-(10-hydroxydecyl)-2,3-dimethoxy-5-methyl-1,4-benzoquin-one]", "values": [
      {"measurement": "reduction of lipid hydroperoxides among the tested antioxidants", "setting": "[2]", "result": "highest reduction"}
    ]},
    {"molecule": "COC1=C(OC)C(=O)C(C/C=C(\\C)CC/C=C(\\C)CC/C=C(\\C)CC/C=C(\\C)CC/C=C(\\C)CC/C=C(\\C)CC/C=C(\\C)CC/C=C(\\C)CC/C=C(\\C)CCC=C(C)C)=C(C)C1=O", "note": "[ubiquinone, Ubiquinone]", "values": [
      {"measurement": "conversion to the active antioxidant form ubiquinol", "setting": "[3]", "result": 90, "unit": "%"}
    ]}
  ]
}
